Consider 20 compounds from ChEMBL document CHEMBL2176999, “Update on the development of antagonists of chemoattractant receptor-homologous molecule expressed on Th2 cells (CRTH2). From lead optimization to clinical proof-of-concept in asthma and allergic rhinitis” (J Med Chem, 2012).

For data set [1], the target named is Sodium-dependent serotonin transporter (Homo sapiens, UniProt P31645). Description: Inhibition of SERT.
The target of data set [2] is T1, Prostaglandin D2 receptor 2 (Homo sapiens, UniProt Q9Y5Y4).
T1 sequence (Q9Y5Y4 whole entry): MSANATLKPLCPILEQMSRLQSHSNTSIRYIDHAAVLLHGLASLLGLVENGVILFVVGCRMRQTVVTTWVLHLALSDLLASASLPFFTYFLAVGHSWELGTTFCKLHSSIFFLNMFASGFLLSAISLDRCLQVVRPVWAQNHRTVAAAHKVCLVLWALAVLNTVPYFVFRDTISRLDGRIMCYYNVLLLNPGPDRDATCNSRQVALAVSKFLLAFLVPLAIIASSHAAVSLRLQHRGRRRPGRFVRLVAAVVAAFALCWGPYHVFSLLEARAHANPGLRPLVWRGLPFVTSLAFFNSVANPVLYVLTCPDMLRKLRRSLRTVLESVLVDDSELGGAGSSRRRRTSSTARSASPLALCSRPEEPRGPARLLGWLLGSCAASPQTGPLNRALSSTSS
Description: Displacement of [3H]PGD2 from human CRTH2 expressed in HEK293 cells after 90 mins by TopCount analysis. The format is cell-based. For orientation: Displacement assays read how much labelled ligand stays bound in the presence of the test substance.

Data set [3] concerns the target T1, Prostaglandin D2 receptor 2.
Data set [4] has the same target. This is another data set of the same source.
Description: Inhibition of CRTH2 in human whole blood
The target is the same in data set [5]. Description: Antagonistic activity at CRTH2 in human eosinophils assessed as inhibition of PGD2-induced calcium mobilization after 60 mins by Fluo-3 based fluorescence assay. The format is functional.
For data set [6] the target is unchanged. The experiment in a line: Displacement of [3H]PGD2 from human CRTH2 expressed in K562 cells after 60 mins by scintillation counting. The format is cell-based.
For data set [7] the target is unchanged. Description: Displacement of [3H]PGD2 from CRTH2 expressed in CHO cells after 1 hr by beta counting analysis. Type of data set: cell-based.
A further data set in a line: in vivo. The conditions noted are these: rat.
Data set [8] deals with Aldo-keto reductase family 1 member B1 (Rattus norvegicus, UniProt P07943). Description: Inhibition of rat aldose reductase.
A short description of data set [9]: Oral bioavailability in rat. The format is ADME, organism-based. The settings on record: in vivo.
For data set [10], the target named is T1, Prostaglandin D2 receptor 2. The experiment in a line: Displacement of [3H]PGD2 from human CRTH2 expressed in K562 cells after 60 mins by scintillation counting in presence of 4% human serum albumin. The format is cell-based.

Each structure is given as a SMILES string. Where only a bound is given, the exact number is not on record here.

Chain of Sodium-dependent serotonin transporter (P31645 whole entry): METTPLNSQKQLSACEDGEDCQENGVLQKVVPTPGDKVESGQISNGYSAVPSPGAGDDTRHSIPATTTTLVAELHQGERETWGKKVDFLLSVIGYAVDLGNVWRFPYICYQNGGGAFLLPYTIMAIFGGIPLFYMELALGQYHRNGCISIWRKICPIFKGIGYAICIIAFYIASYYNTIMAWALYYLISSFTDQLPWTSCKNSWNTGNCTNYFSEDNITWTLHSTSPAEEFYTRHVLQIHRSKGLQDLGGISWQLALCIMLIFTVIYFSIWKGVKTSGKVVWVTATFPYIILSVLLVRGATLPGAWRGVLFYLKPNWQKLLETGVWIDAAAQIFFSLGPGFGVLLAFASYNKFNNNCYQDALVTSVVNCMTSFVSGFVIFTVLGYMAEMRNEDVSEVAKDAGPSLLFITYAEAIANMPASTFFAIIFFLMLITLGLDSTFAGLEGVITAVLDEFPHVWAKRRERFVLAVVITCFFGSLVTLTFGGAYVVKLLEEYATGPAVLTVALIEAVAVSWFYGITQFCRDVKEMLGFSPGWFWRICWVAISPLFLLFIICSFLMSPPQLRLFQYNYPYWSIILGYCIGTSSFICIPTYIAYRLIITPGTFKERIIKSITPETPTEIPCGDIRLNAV

For `Cc1ccc2c(c1)c(-c1ccnc3c(C)cccc13)c(C)n2CC(=O)O`, the IC50 in data set [1] came out at 2000 nM.

`O=C(O)Cn1c2c(c3cc(F)ccc31)C[C@H](NC(=O)CC(c1ccccc1)c1ccccc1)CC2` registered an IC50 in [2] of 2 nM. `Cc1c(Sc2ccc(Cl)cc2)c2cc(Cl)ncc2n1CC(=O)O` returned a Ki in [3] of 106 nM. In the case of `Cc1c(CC(=O)O)c2cc(F)ccc2n1Cc1nc2ccccc2s1`, in [4], the midpoint of inhibition, the IC50, lay at 2400 nM. The Ki in [5] came out at 44 nM. As for `Cc1cc(CC(=O)O)c2c(C)c(Cc3ccccc3)c(=O)oc2c1`, in [6], the Ki is 32 nM.

As for `Cc1c(Sc2ccc(Cl)cc2)c2ncccc2n1CC(=O)O`, the Ki in data set [7] and in data set [1] was 143 nM in each case. As for `Cc1c(CC(=O)O)c2cc(F)ccc2n1Cc1ccc2ccccc2c1`, in [5], the Ki was determined as 9 nM.

Compound `C[C@H]1C[C@@H](N(C(=O)CCC(=O)O)c2ccccc2)c2ccccc2N1C(=O)c1ccccc1` registered an IC50 in [4] of 0.77 nM. `CCc1c(CC(=O)O)c(C2CC2)nn1Cc1ccc(NC(=O)c2ccc(C(F)(F)F)cc2)cc1` came in with a Ki in data set [3] of 0.5 nM. `CCc1nc2c(F)ccc(OCC(=O)O)c2c(OC(F)F)c1Cc1ccc(-n2cccn2)cc1` had a Ki in data set [6] of 5.4 nM. `Cc1c(Cc2ccc(S(C)(=O)=O)cc2)c2cc(F)ccc2n1CC(=O)O` yielded an IC50 in data set [4] of 8 nM. `O=C(O)Cc1ccc(Oc2ccc(NC(=O)c3ccc(Cl)c(Cl)c3)cc2)c(CNS(=O)(=O)c2ccc(F)cc2)c1` yielded a Ki in data set [3] of less than 1000 nM. Regarding `CCN(Cc1cc(C(F)(F)F)ccc1-c1cc(CC(=O)O)ccc1OC)C(=O)C1CC1`, the Ki in data set [3] worked out at 13.5 nM. In [4], this compound registered an IC50 of 6.5 nM. Turning to `Cc1c(Sc2ccc(Cl)cc2)c2c(Cl)nccc2n1CC(=O)O`, the Ki in data set [3] came to 58 nM. As to `Cc1c(Cc2ccc3ccccc3n2)c2cc(F)ccc2n1CC(=O)O` [TIMAPIPRANT], in the data set “in vivo”, the half-life was 3.5 h. The compound further registered an IC50 in data set [8] of 550 nM. Besides, in data set [9], the bioavailability stood at 100%.

For `CN(C(=O)C1(C)CCc2c(c3ccccc3n2CC(=O)O)C1)c1cccc(Cl)c1` (stereo unspecified), the IC50 in [2] worked out at 1 nM.

Consider `Cc1c(Cc2ccc3ccccc3c2)c2cc(F)ccc2n1CC(=O)O`, for which the IC50 in [4] was 812 nM. Further, the Ki in data set [5] was 15 nM. In the case of `Cc1c(Cc2nc3ccccc3s2)c2cc(F)ccc2n1CC(=O)O`, inhibition in [4] was half-maximal at 343 nM (IC50). Regarding `Cc1c(CC(=O)O)c2cc(F)ccc2n1S(=O)(=O)c1ccc(S(C)(=O)=O)cc1`, it took 106 nM to reach half-maximal inhibition in [4] (IC50). For the compound `O=C(Nc1cccc(-c2ccc(Cl)cc2)n1)c1ccc(Oc2cc3c(cc2Cl)[C@H](C(=O)O)CCO3)cc1`, the IC50 in data set [10] is 22 nM.

By IC50 is commonly meant the concentration at which inhibition is half-maximal. As usually defined, the Ki is the dissociation constant of the complex between target and ligand, obtained from inhibition or displacement. Usually half-life stands for how long it takes for the measured level to halve. A low value points to fast loss. The bioavailability is the share of a dose that reaches the circulation, judged against a reference dose that is usually intravenous. A low value points to poor availability.
